# According to patent publication US20170122958A1, “Enzymes Functional Probes” (University of Dundee, priority 2013, published 2017):
# Experiments:
# Experiment in all cases: ITC reverse titration of protein into compound
# Format in all cases: binding
# Brd2(1) Leu110-Ile = Brd2(1) Leu110-Ile (Homo sapiens, UniProt P25440, L110I); parameters: Plasmids of the eight single BET bromodomain constructs Brd2(1), Brd2(2), Brd3(1), Brd3(2), Brd4(1), Brd4(2), Brdt(1) and Brdt(2); His6 (N); made in house; host or cells: E. coli BL21(DE3)
# Sequence of Brd2(1) Leu110-Ile (P25440 74-180 L110I limits assumed): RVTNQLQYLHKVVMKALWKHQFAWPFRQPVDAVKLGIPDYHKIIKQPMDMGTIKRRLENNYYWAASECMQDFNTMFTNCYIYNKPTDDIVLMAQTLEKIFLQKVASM
# Experimental: (§1) ITC experiments were carried out on a ITC200 instrument from MicroCal™ Experiments were conducted at 3 different temperatures 15° C., 25° C. and 30° C., while stirring at 1000 rpm. Buffers of proteins, peptide and compounds were matched to 20 mM HEPES pH 7.5 at 25° C. and 100 mM NaCl. Frozen protein was buffer exchanged as described for the DSF experiments. Each titration comprised 1 initial injection of 0.4 μl lasting 0.8 s, followed by 19 injections of 2 μl lasting 4 s each at 2 min intervals. The initial injection was discarded during data analysis. Standard and reverse titrations were conducted depending on the binding partners.
# (§2) Reverse titrations were conducted to test the binding of the known ligands and the novel chemical probes to the wild types and the mutants. Experiments were carried out either at 25° C. or 30° C. For strong binders, a concentration of 150-200 μM of the protein was injected into a solution of 15-20 μM compound. […] In cases where the compound was solubilized in dimethyl sulfoxide, DMSO concentration was adjusted to 1% both in the syringe and in the cell.
# (§3) All the data was fitted to a single binding site model using the Microcal LLC ITC200 Origin software provided by the manufacturer to yield enthalpies of binding (ΔH) and binding constants (Kas). Further thermodynamic parameters were calculated from these values (changes in entropy ΔS, changes in free energy AG and dissociation constants (Kds)).
# Brd2(2) Leu383-Ile = Brd2(2) Leu383-Ile (Homo sapiens, UniProt P25440, L383I); parameters: Plasmids of the eight single BET bromodomain constructs Brd2(1), Brd2(2), Brd3(1), Brd3(2), Brd4(1), Brd4(2), Brdt(1) and Brdt(2); His6 (N); made in house; host or cells: E. coli BL21(DE3)
# Sequence of Brd2(2) Leu383-Ile (P25440 344-453 L383I limits assumed): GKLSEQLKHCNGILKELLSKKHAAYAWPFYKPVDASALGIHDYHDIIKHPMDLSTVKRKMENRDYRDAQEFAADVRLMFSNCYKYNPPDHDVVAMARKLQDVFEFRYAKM
# Experimental: as §1, §2, §3
# brdt(1)L063A = target: T1, brdt(1)L063A (Homo sapiens, UniProt Q58F21, L63A); details: 30° C.
# T1 construct: Plasmids of the eight single BET bromodomain constructs Brd2(1), Brd2(2), Brd3(1), Brd3(2), Brd4(1), Brd4(2), Brdt(1) and Brdt(2); His6 (N); made in house; host or cells: E. coli BL21(DE3)
# Experimental: (§4) Results obtained were very promising, showing small shifts from 1.2° C. to a maximum of 2.6° C. for all the eight BET wild types and shifts from 5.4° C. to 13.4° C. for all the leucine to alanine mutants.
# (§5) For all mutants, protein was titrated at a concentration between 150-200 μM into a solution of the compound at a concentration of 15-20 μM. In the case of the wild types, protein was titrated at a concentration of 350-400 μM into a solution of the compound between 15-20 μM. FIG. 11 is an illustrative example of the curves obtained for the Brd3(1) bromodomain construct and its respective leucine to alanine mutant titrated into compound 11. We can easily observe a hyperbolic shape for the titration of wild type Brd3(1) into compound 11, corresponding to a low affinity interaction, while for Brd3(1)*(Leu070-Ala) we can easily observe a sharp sigmoidal behaviour corresponding to a high affinity interaction. Furthermore, there is a clear difference in the ΔH produced by each interaction. (ΔH=−22 kcal/mol vs. mutant compared to −7 kcal/mol vs. wild type).
# as §1, §2, §3
# Brd3(1) = target: T2, Brd3(1) (Homo sapiens, UniProt Q15059); details: ITC 30° C., 1% DMSO
# T2 construct: Plasmids of the eight single BET bromodomain constructs Brd2(1), Brd2(2), Brd3(1), Brd3(2); His6 (N); made in house; host or cells: E. coli BL21(DE3)
# T2 sequence (Q15059 34-140 limits assumed): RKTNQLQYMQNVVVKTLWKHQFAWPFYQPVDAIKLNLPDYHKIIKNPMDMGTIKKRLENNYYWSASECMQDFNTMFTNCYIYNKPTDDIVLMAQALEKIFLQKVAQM
# Experimental: as §4, §5, §1, §2, §3
# brd4(2)L387A = target: T3, brd4(2)L387A (Homo sapiens, UniProt O60885, L387A); details: 30° C.
# T3 construct: Plasmids of the eight single BET bromodomain constructs Brd2(1), Brd2(2), Brd3(1), Brd3(2), Brd4(1), Brd4(2), Brdt(1) and Brdt(2); His6 (N); made in house; host or cells: E. coli BL21(DE3)
# Experimental: as §4, §5, §1, §2, §3
SMILES,Kd (Brd2(1) Leu110-Ile),Kd (Brd2(2) Leu383-Ile),Selectivity factor Kd WT/Kd Leu/Ala (brdt(1)L063A; brdt(1)L063A vs WT brd2(1)),Selectivity factor Kd WT/Kd Leu/Ala (brdt(1)L063A; brdt(1)L063A vs WT brd2(2)),Selectivity factor Kd WT/Kd Leu/Ala (brdt(1)L063A; brdt(1)L063A vs WT brd3(1)),Selectivity factor Kd WT/Kd Leu/Ala (brdt(1)L063A; brdt(1)L063A vs WT brd3(2)),Selectivity factor Kd WT/Kd Leu/Ala (brdt(1)L063A; brdt(1)L063A vs WT brd4(1)),Selectivity factor Kd WT/Kd Leu/Ala (brdt(1)L063A; brdt(1)L063A vs WT brd4(2)),Selectivity factor Kd WT/Kd Leu/Ala (brdt(1)L063A; brdt(1)L063A vs WT brdt(1)),Selectivity factor Kd WT/Kd Leu/Ala (brdt(1)L063A; brdt(1)L063A vs WT brdt(2)),ΔH wild type Brd3(1) (Brd3(1)),Selectivity factor Kd WT/Kd Leu/Ala (brd4(2)L387A; brd4(2)L387A vs WT brd2(1)),Selectivity factor Kd WT/Kd Leu/Ala (brd4(2)L387A; brd4(2)L387A vs WT brd2(2)),Selectivity factor Kd WT/Kd Leu/Ala (brd4(2)L387A; brd4(2)L387A vs WT brd3(2)),Selectivity factor Kd WT/Kd Leu/Ala (brd4(2)L387A; brd4(2)L387A vs WT brd4(1)),Selectivity factor Kd WT/Kd Leu/Ala (brd4(2)L387A; brd4(2)L387A vs WT brd4(2)),Selectivity factor Kd WT/Kd Leu/Ala (brd4(2)L387A; brd4(2)L387A vs WT brdt(1)),Selectivity factor Kd WT/Kd Leu/Ala (brd4(2)L387A; brd4(2)L387A vs WT brdt(2))
"COC(=O)[C@H](C)[C@@H]1N=C(c2ccc(Cl)cc2)c2cc(OC)ccc2-n2c(C)nnc21 (racemic) [Compound 7, (+−)-methyl (R)-2-((S)-6-(4-chlorophenyl)-8-methoxy-1-methyl-4H-benzo[f][1,2,4]triazolo[4,3-a][1,4]diazepin-4-yl)propanoate]",260 nM,27 nM,,,,,,,,,,,,,,,,
"CC[C@@H](C(=O)OC)[C@@H]1N=C(c2ccc(Cl)cc2)c2cc(OC)ccc2-n2c(C)nnc21 (racemic) [Compound 11, (+−)-methyl (R)-2-((S)-6-(4-chlorophenyl)-8-methoxy-1-methyl-4H-benzo[f][1,2,4]triazolo[4,3-a][1,4]diazepin-4-yl)butanoate]",,,48,92,37,40,67,54,46,65,-7 kcal/mol,45,88,38,65,51,44,62
